Reference: ChEMBL document CHEMBL5143655, “Synthesis and biological evaluation of 1,2,4-triazole derivatives as potential Nrf2 activators for the treatment of cerebral ischemic injury” (Eur J Med Chem, 2022)
Active and inactive are the calls of the source. The calls are words filed in the database; no cut-off is given here.

Key:
Rattus norvegicus [1] = assay: (§1) Neuroprotective activity in Sprague-Dawley rat model of middle cerebral artery occlusion-induced ischemia-reperfusion injury assessed as decrease in cerebral infarct volume at 30 mg/kg, ip preincubated for 1 hrs followed by MCAO operation and further incubated with compound for 4 hrs after reperfusion by TTC staining based assay; type: functional; parameters: scale not given: the % may be the effect or the level left; settings: time 5 hrs
[2] = Metabolic stability in human plasma assessed as half life at 200 uM by LC-MS/MS analysis relative to control; type: ADME, cell-free
PC-12 [3] = assay: Cytoprotective activity against SNP - induced oxidative stress in rat PC-12 cells assessed as restoration of mitochondrial membrane potential at 10 uM preincubated for 2 hrs followed by SNP stimulation for 24 hrs by JC-1 staining based fluorescence microscopic analysis; type: functional, cell-based
Rattus norvegicus [4] = assay: as §1, with “10” for “30”; type: functional; parameters: scale not given: the % may be the effect or the level left; settings: time 5 hrs
PC-12 [5] = assay: Neuroprotective activity against SNP-induced apoptotic rat PC-12 cells assessed as reduction in nuclear shrinkage by measuring the decrease in blue fluorescence signal at 10 uM preincubated for 2 hrs followed by SNP stimulation for 24 hrs by Hoechst 33258 staining based fluorescence microscopic analysis; type: functional, cell-based
[6] = AUC (0 to infinity) in Sprague-Dawley rat at 5 mg/kg, iv measured upto 24 hrs by LC-MS/MS analysis; type: ADME, organism-based; parameters: dose 5 mg/kg, time < 24 hrs, route iv; settings: in vivo
[7] = Acute toxicity in BALB/c mouse assessed as survival rate at 1000 mg/kg, ip measured after 7 days; type: organism-based; settings: in vivo, 168 h, time 7 day
[8] = biological target: T1, Nuclear factor erythroid 2-related factor 2 (Rattus norvegicus) (UniProt O54968); assay: Activation of Nrf2 pathway in rat PC-12 cells assessed as increase in HO-1 level at 2.5 to 10 uM measured after 3 hrs by Western blot analysis; type: cell-based; settings: filed as activator, dose 2.5-10 µM
T1 sequence (whole entry): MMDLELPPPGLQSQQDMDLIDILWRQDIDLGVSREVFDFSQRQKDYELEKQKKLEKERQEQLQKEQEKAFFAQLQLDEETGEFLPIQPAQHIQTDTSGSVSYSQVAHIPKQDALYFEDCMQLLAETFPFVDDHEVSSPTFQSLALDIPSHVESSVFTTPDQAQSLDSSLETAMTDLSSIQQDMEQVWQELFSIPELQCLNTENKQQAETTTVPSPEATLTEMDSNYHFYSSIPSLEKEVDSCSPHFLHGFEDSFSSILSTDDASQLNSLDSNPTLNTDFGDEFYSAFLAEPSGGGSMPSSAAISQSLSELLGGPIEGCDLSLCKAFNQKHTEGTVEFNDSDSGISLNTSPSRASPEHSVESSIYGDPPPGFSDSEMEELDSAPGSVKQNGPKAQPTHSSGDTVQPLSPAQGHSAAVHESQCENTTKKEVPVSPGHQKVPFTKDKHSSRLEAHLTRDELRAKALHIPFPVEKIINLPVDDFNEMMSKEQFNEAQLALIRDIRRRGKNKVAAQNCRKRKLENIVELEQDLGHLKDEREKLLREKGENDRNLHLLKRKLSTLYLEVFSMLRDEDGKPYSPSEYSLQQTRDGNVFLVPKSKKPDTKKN

PC-12 [9] = assay: Neuroprotective activity against SNP-induced apoptotic rat PC-12 cells assessed as restoration of cell number at 10 uM preincubated for 2 hrs followed by SNP stimulation for 24 hrs by Hoechst 33258 staining based fluorescence microscopic analysis; type: functional
[10] = Acute toxicity in BALB/c mouse assessed as survival rate at 175 mg/kg, ip measured after 7 days; type: organism-based; settings: in vivo, 168 h, time 7 day
PC-12 [11] = assay: Neuroprotective activity against SNP-induced oxidative stress in rat PC-12 cells assessed as inhibition of ROS accumulation at 10 uM preincubated for 2 hrs followed by SNP stimulation for 24 hrs by DCFH-DA staining based fluorescence microscopic analysis; type: functional, cell-based
[12] = Metabolic stability in human plasma assessed as parent compound remaining at 200 uM measured after 15 min by LC-MS/MS analysis relative to control; type: ADME, cell-free; settings: read-out: Stability
PC-12 [13] = assay: Neuroprotective activity against SNP induced rat PC-12 cells assessed as increase in cell viability at 10 uM preincubated for 2 hrs followed by SNP stimulation for 24 hrs by MTT assay relative to control; type: functional
[14] = MRT in Sprague-Dawley rat at 5 mg/kg, iv measured upto 24 hrs by LC-MS/MS analysis; type: ADME, organism-based; settings: in vivo
Rattus norvegicus [15] = assay: Neuroprotective activity in Sprague-Dawley rat model of middle cerebral artery occlusion-induced ischemia-reperfusion injury assessed as attenuation of behavioral deficit at 10 mg/kg, ip preincubated for 1 hrs followed by MCAO operation and further incubated with compound for 4 hrs after reperfusion; type: functional; settings: time 5 hrs
[16] = Cmax in Sprague-Dawley rat at 5 mg/kg, iv measured upto 24 hrs by LC-MS/MS analysis; type: ADME, organism-based; parameters: dose 5 mg/kg, time < 24 hrs, route iv; settings: in vivo
[17] = Metabolic stability in human plasma assessed as parent compound remaining at 200 uM measured after 120 min by LC-MS/MS analysis relative to control; type: ADME, cell-free; settings: read-out: Stability
[18] = MRT in Sprague-Dawley rat at 5 mg/kg, ip measured upto 24 hrs by LC-MS/MS analysis; type: ADME, organism-based; settings: in vivo
[19] = Clearence in Sprague-Dawley rat at 5 mg/kg, iv measured upto 24 hrs by LC-MS/MS analysis; type: ADME, organism-based; settings: in vivo

Cc1cc(C)cc(-n2nc(-c3ccc(C(F)(F)F)cc3O)nc2-c2ccccc2O)c1
Activity (Rattus norvegicus [1]): 12.23% | half-life at 200 µM [2]: > 8.82 h | Activity (PC-12 [3]): Active | Activity (Rattus norvegicus [4]): 14.49% | Activity (PC-12 [5]): Active | AUC(0-inf) [6]: 10200 ng·h/mL | Activity [7]: Toxic | Activity [8]: Active | Activity (PC-12 [9]): Active | Activity [10]: Non-Toxic | Activity (PC-12 [11]): Active | remaining at 0.25 h, 200 µM [12]: 95.8% | Activity (PC-12 [13]): 105.13% | MRT [14]: 2.84 h | Activity (Rattus norvegicus [15]): 1.6 | Cmax [16]: 6910 ng/mL | remaining at 2 h, 200 µM [17]: 88.9% | MRT [18]: 16.5 h | CL [19]: 0.0005 (mg/kg)/(ng/ml)/hr
